In patent US20240239806A1, “COMPOUNDS, COMPOSITIONS AND METHODS OF TREATING DISORDERS” (Chengdu Anticancer Bioscience, Ltd., priority 2021, published 2024):

Experiments:
[1] = system: colon cancer cell line HCT116; assay: Soft agar colony formation assay; assay type: cell-based, human
From the text: (§1) Measuring the ability of cells to grow in soft agar has been popularly believed as the gold standard assay for cellular transformation in vitro. In the Soft Agar Assay, cells grow from single cells to cell colonies in a semi-solid agar solution that keeps them away from the solid surface and allows growth in an anchorage-independent way.
The anchorage-independent growth of cells is one of the hallmarks of cancer cells. Normal epithelial cells are supported by basement membranes that provide survival and proliferative signals while undergo a type of apoptosis called anoikis when lose their attachment to the extracellular matrix. Cancer cells, in contrast, evade detachment-induced apoptosis, leading to uncontrolled proliferation and metastasis. The Soft Agar Colony Formation Assay allows testing of the therapeutic efficacy of compounds against anchorage-independent 3D growth of cancer cells in vin. The assay was performed in 6-well plates with two layers of agar. For the first, 0.75% agar in DMEM medium was melted in a microwave oven and poured to form a bottom layer. Once solidified, 10-100K cells in 1 ml of DMEM containing 0.35% agar was added to form the top layer, which was later covered with 0.5 ml of DMEM. Cell culture medium was changed once every two days until colonies were ready to photograph. We test the antitumor activity of select compounds in soft agar colony formation assays. […] The suppression of growth of these three cancer cell lines in 3D culture is consistent with the potent impact of these compounds on cellular proliferation in 2D culture.

[2] = system: human lung cancer cell line NCI-H23; assay: Soft agar colony formation assay; assay type: cell-based
From the text: as §1
The anchorage-independent growth of cells is one of the hallmarks of cancer cells. Normal epithelial cells are supported by basement membranes that provide survival and proliferative signals while undergo a type of apoptosis called anoikis when lose their attachment to the extracellular matrix. Cancer cells, in contrast, evade detachment-induced apoptosis, leading to uncontrolled proliferation and metastasis. The Soft Agar Colony Formation Assay allows testing of the therapeutic efficacy of compounds against anchorage-independent 3D growth of cancer cells in vin. The assay was performed in 6-well plates with two layers of agar. For the first, 0.75% agar in DMEM medium was melted in a microwave oven and poured to form a bottom layer. Once solidified, 10-100K cells in 1 ml of DMEM containing 0.35% agar was added to form the top layer, which was later covered with 0.5 ml of DMEM. Cell culture medium was changed once every two days until colonies were ready to photograph. […]

For `COc1cc(OC)cc(Oc2ccnc3ccccc23)c1` [Compound 7, 4-(3,5-dimethoxyphenoxy)quinoline], which “growth in soft agar” value [1] is on record?
Its value is “suppressed the growth”.

How did the “growth in soft agar” value [2] turn out when `COC(=O)c1cc(Oc2ncnc3cc[nH]c23)cc(C(=O)OC)c1` [Compound 36, dimethyl 5-((5H-pyrrolo[3,2-d]pyrimidin-4-yl)oxy)isophthalate] was run?
The value was “completely blocked the growth”.

How did the “growth in soft agar” value [2] turn out when `COC(=O)c1cc(Oc2ncnc3ccsc23)cc(C(=O)OC)c1` [Compound 39, dimethyl 5-(thieno[3,2-d]pyrimidin-4-yloxy)isophthalate] was run?
Its value is “completely blocked the growth”.
